{"source": "EPA's ToxValDB 9.5", "key": {"Rattus norvegicus [1]": {"test_system": "Rattus norvegicus", "settings": "subchronic; oral; gavage; M; Sprague-Dawley; Body Weight Changes: Body weight gain decrease + Hematology: Fibrinogen decrease + Blood Chemistry: BUN increase, ALP increase, TP decrease…"}, "Rattus norvegicus [2]": {"test_system": "Rattus norvegicus", "settings": "duration: 46 days, oral, gavage"}, "Mus musculus": {"test_system": "Mus musculus", "settings": "reproduction developmental; oral; drinking water; F; Nod/Shilt; generation: F1; F1: Endocrine: Blood: Glucose (GLU) + F1: Endocrine: Multiple Organs: Diabetes + F1: Endocrine: Pancreas: Insulitis"}, "Rattus norvegicus [3]": {"test_system": "Rattus norvegicus", "settings": "oral, gavage, Crl:CD(SD)"}, "Rattus norvegicus [4]": {"test_system": "Rattus norvegicus", "settings": "subchronic; oral; M/F; renal and hepatotoxicity"}, "[5]": {"settings": "developmental, F, Developmental: Decreased body weight in pups on PNDs 0 and 4 (13-19% in males and 12-16% in females)"}, "[6]": {"settings": "subchronic, M/F, Body Weight: Decreased body weight (~10%) in males during exposure and recovery and in satellite females during dosing (~23% on day 40) and …"}, "[7]": {"settings": "developmental, F, generation: F1, F1: Developmental: Whole Body: Pup Weight Relative to Litter (PND 0) + F1: Developmental: Whole Body: Pup Weight Relative to Litter (PND 4)"}, "[8]": {"settings": "developmental, M/F, generation: F1, F1: Developmental: Whole Body: Live Birth Index + F1: Developmental: Whole Body: Live Pups Born + F1: Developmental: Whole Body: No. Live …"}, "[9]": {"settings": "developmental, M, generation: F1, F1: Developmental: Whole Body: Pup Weight Relative to Litter (PND 0) + F1: Developmental: Whole Body: Pup Weight Relative to Litter (PND 4)"}, "[10]": {"settings": "reproduction developmental, duration: 42 days, M, generation: P0, P0: Blood: Albumin/Globulin (A/G) Ratio + P0: Liver: Cholesterol (CHOL), Total, Blood + P0: Liver: Hepatocellular Hypertrophy + P0: Liver: …"}, "[11]": {"settings": "reproduction developmental, duration: 46 days, F, generation: F1, F1: Whole Body: Pup Weight Relative to Litter (PND 0) + F1: Whole Body: Pup Weight Relative to Litter (PND 4)"}, "[12]": {"settings": "reproduction developmental, duration: 46 days, F, generation: P0, P0: Liver: Cholesterol (CHOL), Total, Blood + P0: Liver: Phospholipid"}, "[13]": {"settings": "reproduction developmental, duration: 46 days, M, generation: F1, F1: Whole Body: Pup Weight Relative to Litter (PND 0) + F1: Whole Body: Pup Weight Relative to Litter (PND 4)"}, "[14]": {"settings": "reproduction developmental, F, generation: P0, P0: Developmental: Uterus: Implantation + P0: Developmental: Uterus: Implantation Index + P0: Hepatic: Blood: Albumin/Globulin (A/G) Ratio…"}, "[15]": {"settings": "reproduction developmental, F, generation: P0, P0: General Toxicity: Whole Body: Clinical Observations + P0: General Toxicity: Whole Body: Maternal Body Weight Change + P0: Other Systems…"}, "[16]": {"settings": "reproduction developmental, M, generation: P0, P0: General Toxicity: Whole Body: Body Weight Change + P0: General Toxicity: Whole Body: Clinical Observations + P0: Other Systems: Bone: …"}, "[17]": {"settings": "reproduction developmental, M, generation: P0, P0: Hepatic: Blood: Albumin/Globulin (A/G) Ratio + P0: Hepatic: Liver: Alanine Aminotransferase (ALT) + P0: Hepatic: Liver: Albumin (A) + P0…"}}, "data": [{"molecule": "O=C(O)C(F)(F)C(F)(F)C(F)(F)C(F)(F)C(F)(F)C(F)(F)C(F)(F)C(F)(F)C(F)(F)C(F)(F)F", "note": "[Perfluoroundecanoic acid]", "values": [{"measurement": "NOEL", "setting": "Rattus norvegicus [1]", "result": 0.1, "unit": "mg/kg-day"}, {"measurement": "LOAEL", "setting": "Rattus norvegicus [2]; [5]", "result": 1, "unit": "mg/kg-day"}, {"measurement": "NOAEL", "setting": "Rattus norvegicus [2]; [5]", "result": 0.3, "unit": "mg/kg-day"}, {"measurement": "LOAEL", "setting": "Rattus norvegicus [2]; [6]", "result": 1, "unit": "mg/kg-day"}, {"measurement": "NOAEL", "setting": "Rattus norvegicus [2]; [6]", "result": 0.3, "unit": "mg/kg-day"}, {"measurement": "NOAEL", "setting": "Rattus norvegicus [2]; subchronic, M/F, Hepatic: Increased absolute and relative liver weight and centrilobular hypertrophy at 1.0 mg/kg/day", "result": 1, "unit": "mg/kg-day"}, {"measurement": "LOAEL", "setting": "Mus musculus", "result": 0.042, "unit": "mg/kg-day"}, {"measurement": "NOAEL", "setting": "Mus musculus", "result": 0.004, "unit": "mg/kg-day"}, {"measurement": "LOAEL", "setting": "Rattus norvegicus [3]; [7]", "result": 0.3, "unit": "mg/kg-day"}, {"measurement": "NOAEL", "setting": "Rattus norvegicus [3]; [7]", "result": 0.1, "unit": "mg/kg-day"}, {"measurement": "LOAEL", "setting": "Rattus norvegicus [3]; [8]", "result": 0.3, "unit": "mg/kg-day"}, {"measurement": "NOAEL", "setting": "Rattus norvegicus [3]; [8]", "result": 0.1, "unit": "mg/kg-day"}, {"measurement": "LOAEL", "setting": "Rattus norvegicus [3]; [9]", "result": 0.3, "unit": "mg/kg-day"}, {"measurement": "NOAEL", "setting": "Rattus norvegicus [3]; [9]", "result": 0.1, "unit": "mg/kg-day"}, {"measurement": "NEL", "setting": "Rattus norvegicus [3]; reproduction developmental, duration: 42 days, M, generation: P0, P0: Adrenal: Adrenal Gland Histopathology + P0: Adrenal: Adrenal Gland Weight, Absolute + P0: Adrenal: Adrenal Gland Weight, Relative + P0: …", "result": 1, "unit": "mg/kg-day"}, {"measurement": "LEL", "setting": "Rattus norvegicus [3]; reproduction developmental, duration: 42 days, M, generation: P0, P0: Adrenal: Adrenal Gland Weight, Absolute, Recovery + P0: Blood: Activated Partial Thromboplastin Time (APTT) + P0: Blood: Calcium (CA), …", "result": 1, "unit": "mg/kg-day"}, {"measurement": "NEL", "setting": "Rattus norvegicus [3]; reproduction developmental, duration: 42 days, M, generation: P0, P0: Blood: Activated Partial Thromboplastin Time (APTT) + P0: Blood: Calcium (CA), Blood + P0: Blood: Fibrinogen + P0: Blood: Mean …", "result": 0.3, "unit": "mg/kg-day"}, {"measurement": "LEL", "setting": "Rattus norvegicus [3]; [10]", "result": 0.3, "unit": "mg/kg-day"}, {"measurement": "NEL", "setting": "Rattus norvegicus [3]; [10]", "result": 0.1, "unit": "mg/kg-day"}, {"measurement": "LEL", "setting": "Rattus norvegicus [3]; reproduction developmental, duration: 42 days, M, generation: P0, P0: Blood: Platelets (PLT)", "result": 0.1, "unit": "mg/kg-day"}, {"measurement": "LEL", "setting": "Rattus norvegicus [3]; [11]", "result": 1, "unit": "mg/kg-day"}, {"measurement": "NEL", "setting": "Rattus norvegicus [3]; [11]", "result": 0.3, "unit": "mg/kg-day"}, {"measurement": "NEL", "setting": "Rattus norvegicus [3]; reproduction developmental, duration: 46 days, F, generation: P0, P0: Adrenal: Adrenal Gland Histopathology + P0: Adrenal: Adrenal Gland Weight, Absolute + P0: Adrenal: Adrenal Gland Weight, Relative + P0: …", "result": 1, "unit": "mg/kg-day"}, {"measurement": "LEL", "setting": "Rattus norvegicus [3]; reproduction developmental, duration: 46 days, F, generation: P0, P0: Adrenal: Adrenal Gland Weight, Absolute, Recovery + P0: Blood: Fibrinogen + P0: Blood: Mean Corpuscular Hemoglobin (MCH) + P0: Blood: …", "result": 1, "unit": "mg/kg-day"}, {"measurement": "NEL", "setting": "Rattus norvegicus [3]; reproduction developmental, duration: 46 days, F, generation: P0, P0: Blood: Fibrinogen + P0: Blood: Mean Corpuscular Hemoglobin (MCH) + P0: Blood: Mean Corpuscular Volume (MCV) + P0: Kidney: Blood Urea …", "result": 0.3, "unit": "mg/kg-day"}, {"measurement": "LEL", "setting": "Rattus norvegicus [3]; reproduction developmental, duration: 46 days, F, generation: P0, P0: Blood: Total Protein (TP), Blood + P0: Thymus: Thymus Histopathology", "result": 0.1, "unit": "mg/kg-day"}, {"measurement": "LEL", "setting": "Rattus norvegicus [3]; [12]", "result": 0.3, "unit": "mg/kg-day"}, {"measurement": "NEL", "setting": "Rattus norvegicus [3]; [12]", "result": 0.1, "unit": "mg/kg-day"}, {"measurement": "NEL", "setting": "Rattus norvegicus [3]; reproduction developmental, duration: 46 days, M/F, generation: F1, F1: Whole Body: Live Birth Index + F1: Whole Body: Live pups (PND 4) + F1: Whole Body: Live Pups Born + F1: Whole Body: Male Pups per Pups …", "result": 1, "unit": "mg/kg-day"}, {"measurement": "LEL", "setting": "Rattus norvegicus [3]; [13]", "result": 1, "unit": "mg/kg-day"}, {"measurement": "NEL", "setting": "Rattus norvegicus [3]; [13]", "result": 0.3, "unit": "mg/kg-day"}, {"measurement": "LOAEL", "setting": "Rattus norvegicus [3]; reproduction developmental, F, generation: P0, P0: Cardiovascular: Heart: Heart Histopathology + P0: Cardiovascular: Heart: Heart Weight, Absolute + P0: Cardiovascular: Heart: Heart …", "result": 0.3, "unit": "mg/kg-day"}, {"measurement": "LOAEL", "setting": "Rattus norvegicus [3]; [14]", "result": 0.3, "unit": "mg/kg-day"}, {"measurement": "NOAEL", "setting": "Rattus norvegicus [3]; [14]", "result": 0.1, "unit": "mg/kg-day"}, {"measurement": "LOAEL", "setting": "Rattus norvegicus [3]; [15]", "result": 1, "unit": "mg/kg-day"}, {"measurement": "NOAEL", "setting": "Rattus norvegicus [3]; [15]", "result": 0.3, "unit": "mg/kg-day"}, {"measurement": "LOAEL", "setting": "Rattus norvegicus [3]; reproduction developmental, M, generation: P0, P0: Cardiovascular: Heart: Heart Histopathology + P0: Cardiovascular: Heart: Heart Weight, Absolute + P0: Cardiovascular: Heart: Heart …", "result": 0.3, "unit": "mg/kg-day"}, {"measurement": "LOAEL", "setting": "Rattus norvegicus [3]; [16]", "result": 1, "unit": "mg/kg-day"}, {"measurement": "NOAEL", "setting": "Rattus norvegicus [3]; [16]", "result": 0.3, "unit": "mg/kg-day"}, {"measurement": "LOAEL", "setting": "Rattus norvegicus [3]; [17]", "result": 0.3, "unit": "mg/kg-day"}, {"measurement": "NOAEL", "setting": "Rattus norvegicus [3]; [17]", "result": 0.1, "unit": "mg/kg-day"}]}, {"molecule": "C#CCO", "note": "[Propargyl alcohol]", "values": [{"measurement": "LOAEL", "setting": "Rattus norvegicus [4]", "result": 15, "unit": "mg/kg-day"}, {"measurement": "NOAEL", "setting": "Rattus norvegicus [4]", "result": 5, "unit": "mg/kg-day"}]}]}
